According to paper PMC5559473, “Screening of TB Actives for Activity against Nontuberculous Mycobacteria Delivers High Hit Rates” (Frontiers in Microbiology, 2017):
In brackets after ≈: the same amount, converted by molar mass.

Experiments:
M. abscessus Bamboo [1] = assay: Single point growth inhibition screening assay; format: cell-based, Mycobacterium abscessus; conditions: 20 μM, 3 days
M. avium 11 [2] = assay: Single point growth inhibition screening assay; format: cell-based, Mycobacterium avium; conditions: M. avium 11, 20 μM, 4 days
M. abscessus Bamboo [3] = assay: Dose-response growth inhibition (broth microdilution); format: cell-based, Mycobacterium abscessus; conditions: Mycobacteroides abscessus, 72 h, M. abscessus Bamboo, 3 days
M. abscessus Bamboo [4] = assay: Bactericidal assay (CFU, fold kill); format: cell-based, Mycobacterium abscessus; conditions: 10^7 CFU/mL exposed to MIC90 for 3 days, CFU vs starting inoculum
M. avium 11 [5] = assay: Dose-response growth inhibition (broth microdilution); format: cell-based, Mycobacterium avium; conditions: Mycobacterium avium, 96 h, M. avium 11, 4 days
M. avium = conditions: ref Heifets et al., 1992; cited from earlier work
M. abscessus = conditions: ref Aziz et al., 2017; cited from earlier work
M. avium 11 [6] = assay: Bactericidal assay (CFU, fold kill); format: cell-based, Mycobacterium avium; conditions: 10^7 CFU/mL exposed to MIC90 for 4 days, CFU vs starting inoculum

Row | Compound | Activity in primary screen (hit = equal or more than 80% growth inhibition) (M. abscessus Bamboo [1]) | Activity in primary screen (hit = equal or more than 80% growth inhibition) (M. avium 11 [2]) | MIC50 (M. abscessus Bamboo [3]; read-out: MIC50) | MIC90 (M. abscessus Bamboo [3]; read-out: MIC90) | Fold kill at MIC90 (M. abscessus Bamboo [4]) | MIC50 (M. avium 11 [5]; read-out: MIC50) | MIC90 (M. avium 11 [5]; read-out: MIC90) | Concentration required to reduce CFU 10-fold, relative to MIC90 (M. avium) | Concentration required to reduce CFU 10-fold, relative to MIC90 (M. abscessus) | Fold kill at MIC90 (M. avium 11 [6])
1 | COc1nc2ccc(Br)cc2cc1[C@@H](c1ccccc1)[C@@](O)(CCN(C)C)c1cccc2ccccc12 [bedaquiline] | showed activity | showed activity |  |  |  |  |  |  |  | 
2 | CC[C@H]1OC(=O)[C@H](C)[C@@H](O[C@H]2C[C@@](C)(OC)[C@@H](O)[C@H](C)O2)[C@H](C)[C@@H](O[C@@H]2O[C@H](C)C[C@H](N(C)C)[C@H]2O)[C@](C)(OC)C[C@@H](C)C(=O)[C@H](C)[C@@H](O)[C@]1(C)O [clarithromycin, reference compound] |  |  | < 0.2 µM | 0.5 µM (≈ 0.374 µg/mL) | NK (NK, “no kill,” i.e., CFU reduction < 10-fold at MIC90) | < 0.2 µM | 0.6 µM (≈ 0.449 µg/mL) | up to 64 times | up to 100 times | NK (NK, “no kill,” i.e., CFU reduction < 10-fold at MIC90)
3 | C[C@H]1COc2c(N3CCN(C)CC3)c(F)cc3c(=O)c(C(=O)O)cn1c23 [levofloxacin] | showed activity | showed activity |  |  |  |  |  |  |  | 
